For orientation: IC50 means the concentration that gives 50% inhibition.

The target in this assay is T1, Sphingomyelin phosphodiesterase 2 (Rattus norvegicus, UniProt Q9ET64).
T1 sequence (Q9ET64 whole entry): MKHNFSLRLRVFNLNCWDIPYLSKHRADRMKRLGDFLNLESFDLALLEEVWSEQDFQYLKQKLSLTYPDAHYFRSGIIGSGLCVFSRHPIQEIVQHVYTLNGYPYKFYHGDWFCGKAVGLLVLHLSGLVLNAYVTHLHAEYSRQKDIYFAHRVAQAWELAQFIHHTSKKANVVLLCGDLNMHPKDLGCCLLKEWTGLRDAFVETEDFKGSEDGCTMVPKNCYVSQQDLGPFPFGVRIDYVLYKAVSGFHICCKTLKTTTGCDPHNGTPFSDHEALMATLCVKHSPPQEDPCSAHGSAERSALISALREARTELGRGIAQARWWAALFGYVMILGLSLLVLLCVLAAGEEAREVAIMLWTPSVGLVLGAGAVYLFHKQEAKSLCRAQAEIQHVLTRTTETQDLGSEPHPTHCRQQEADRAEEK
As to the kind of experiment: Inhibitory activity against N-SMase (neutral magnesium- dependent-sphingomyelinase) using rat brain microsomes.
Molecule `CCCCCCCCCCCCC/C=C/[C@@H](O)[C@H](CNC(=O)OCc1ccncc1)NC(=O)C(C)(C)C` returned an IC50 of 58 µM. As for `CCCCCCCCCCCCCCC/C=C/[C@@H](O)[C@H](COC(=O)NCc1ccncc1)NC(=O)C(C)(C)C`, the figure is 6.6 µM.

Turning to `CCCCCCCCCCCCC/C=C/[C@@H](O)[C@H](COC(=O)N(O)Cc1ccncc1)NC(=O)C(C)(C)C`, the half-inhibitory concentration (IC50) is 21 µM. The molecule `CCCCCCCCCCCCC/C=C/[C@@H](O)[C@H](CNC(=O)NCc1ccncc1)NC(=O)C(C)(C)C` showed an IC50 of 2.9 µM. Then `CCCCCCCCCC/C=C/[C@@H](O)[C@H](COC(=O)NCc1ccncc1)NC(=O)C(C)(C)C`, with 6.8 µM; and `CCCCCCCCCCCC[C@@H](O)[C@H](COC(=O)NCc1ccncc1)NC(=O)C(C)(C)C`, with more than 100 µM. `CCCCCCCCCCCCC/C=C/[C@@H](O)[C@H](COC(=O)NCc1ccncc1)NC(=O)C(C)(C)C` had a 50% inhibitory concentration (IC50) of 2.8 µM. As for `CCCCCCCCCCCCC/C=C/[C@@H](O)[C@H](CNC(=S)NCc1ccncc1)NC(=O)C(C)(C)C`, the figure is 45 µM. `CCCCCCCCCCCCCCC[C@@H](O)[C@H](COC(=O)NCc1ccncc1)NC(=O)C(C)(C)C`: the IC50 was more than 100 µM.

The values are drawn from ChEMBL document CHEMBL1136313, “Biological evaluation of sphingomyelin analogues as inhibitors of sphingomyelinase” (Bioorg Med Chem Lett, 2003).
